Experimental data as given in patent US6140091A, “Anti-idiotype vaccines to elicit catalytic antibodies” (Boston Biomedical Research Institute, priority 1998, dated 2000).

Legend:
[1] = molecular target: mouse myeloma catalytic antibody MOPC 167 (IgA); settings: from Pollack et al., Science 234: 1570-1573 (1986); cited from earlier work
[2] = system: mouse myeloma catalytic antibody MOPC 167 (IgA); assay: MOPC 167 catalyzed acetylthiocholine hydrolysis (esterase activity, Ellman's reagent); assay type: biochemical; settings: acetylthiocholine as substrate; analog concentration not given
Text: It was recognized that the phosphocholine moiety might serve as a transition state analog for ester hydrolysis according to the scheme shown in FIG. 5. MOPC 167 was therefore tested for esterase activity using acetylthiocholine as a substrate and Ellman's reagent (E-ss-E) for the detection of thiol production (Izadyar et al., Proceedings of the National Academy of Sciences of the United States of America 90: 8876-80 (1993)).
Analysis of the Lineweaver-Burk plot for MOPC 167 catalyzed acetylthiocholine hydrolysis (FIG. 7) gave a Michaelis constant, km =627 μM and catalytic constant, kcat =0.25 min^-1 which were close to the values measured for carbonate ester hydrolysis (Pollack et al., Science 234: 1570-1573 (1986)). However, since spontaneous hydrolysis of this substrate is low, kuncat =4×10^-5 min^-1, the kcat /kuncat =6,000 is about 10-fold greater than that recorded for MOPC 167 catalysis of the carbonate ester reaction. That rate enhancement should be increased by using idiotypic mimicry.

[3] = system: MOPC 167 catalytic antibody (binding of anti-idiotype antibody 1F1); assay: Competitive ELISA using the free transition state analog: binding of anti-Id 1F1 to MOPC 167; parameters: species or system mouse; settings: 10 mM TS analog present
Procedure: (§1) The first competitive ELISA uses the MOPC 167 catalytic antibody adsorbed onto microtitre plate wells. This assay measures the blocking effect of the p-nitrophenylphosphorylcholine transition state analog on the binding of anti-idiotype antibodies to MOPC 167 (FIG. 2, A versus B).
(§2) A true combining site-reactive anti-idiotype antibody will be prevented from interacting with MOPC 167 if this assay is performed in the presence of an excess of the transition state analog because that analog will preoccupy the catalytic combining site (FIG. 2, B). Since the anti-idiotype is blocked from attaching to MOPC 167 and will subsequently wash away, a reduced signal is obtained after the peroxidase-labeled, γ-specific anti-mouse IgG reagent and its substrate are added (compare FIG. 2, A, unblocked control and B, transition state analog blockade).
(§3) Binding of 4G4 and 1F1 to MOPC 167 was inhibited by 67% and 70% respectively when 10 mM p-nitrophenylphosphorylcholine TS analog was present.

[4] = system: MOPC 167 catalytic antibody (binding of anti-idiotype antibody 4G4); assay: Competitive ELISA using the free transition state analog: binding of anti-Id 4G4 to MOPC 167; parameters: species or system mouse; settings: 10 mM TS analog present
Procedure: as §1, §2, §3

## C[N+](C)(C)CCOP(=O)([O-])Oc1ccc([N+](=O)[O-])cc1 [p-nitrophenylphosphorylcholine]
[1]
  affinity Ka: ~ 10^6 M^-1
[2]
  blockage of esterase activity by the non-cleavable transition state analog: almost completely blocked
[3]
  inhibition of binding of 1F1 to MOPC 167: 70%
[4]
  inhibition of binding of 4G4 to MOPC 167: 67%
